Data: the NIST ThermoML archive (doi:10.1016/j.jct.2009.07.002)

Test: isobaric coefficient of expansion
Settings: Liquid, DSC with Pressure Shift

CCCCCCCO [heptan-1-ol]
isobaric coefficient of expansion
Settings	278.15 K	288.15 K	298.15 K	308.15 K	318.15 K	328.15 K	338.15 K	348.15 K
5000 kPa	0.000799 1/K	0.000815 1/K	0.000831 1/K	0.000854 1/K	0.000878 1/K	0.000903 1/K	0.000928 1/K	0.000956 1/K
10000 kPa	0.000779 1/K	0.000798 1/K	0.000811 1/K	0.000832 1/K	0.000854 1/K	0.000876 1/K	0.000901 1/K	0.000927 1/K
15000 kPa	0.000767 1/K	0.000784 1/K	0.000795 1/K	0.000813 1/K	0.000833 1/K	0.000849 1/K	0.000875 1/K	0.000899 1/K
20000 kPa	0.000754 1/K	0.000769 1/K	0.000779 1/K	0.000796 1/K	0.000814 1/K	0.000831 1/K	0.000851 1/K	0.000872 1/K
25000 kPa	0.000741 1/K	0.000757 1/K	0.000762 1/K	0.000776 1/K	0.000792 1/K	0.000811 1/K	0.00083 1/K	0.000848 1/K
30000 kPa	0.000726 1/K	0.000743 1/K	0.000747 1/K	0.000761 1/K	0.000775 1/K	0.000792 1/K	0.000809 1/K	0.000826 1/K
35000 kPa	0.000713 1/K	0.00073 1/K	0.000734 1/K	0.000747 1/K	0.00076 1/K	0.000775 1/K	0.000791 1/K	0.000806 1/K
40000 kPa	0.000697 1/K	0.000716 1/K	0.000716 1/K	0.00073 1/K	0.000742 1/K	0.000756 1/K	0.000769 1/K	0.000786 1/K
45000 kPa	0.00069 1/K	0.000708 1/K	0.000709 1/K	0.000717 1/K	0.00073 1/K	0.00074 1/K	0.000754 1/K	0.000768 1/K
50000 kPa	0.000682 1/K	0.000694 1/K	0.000695 1/K	0.000705 1/K	0.000714 1/K	0.000726 1/K	0.000741 1/K	0.000752 1/K
55000 kPa	0.000673 1/K	0.000686 1/K	0.000684 1/K	0.000693 1/K	0.000703 1/K	0.000715 1/K	0.000725 1/K	0.000737 1/K

CCCCCCCCO [octan-1-ol]
isobaric coefficient of expansion
Settings	278.15 K	288.15 K	298.15 K	308.15 K	318.15 K	328.15 K	338.15 K	348.15 K
5000 kPa	0.000816 1/K	0.000817 1/K	0.000818 1/K	0.00084 1/K	0.000859 1/K	0.000877 1/K	0.0009 1/K	0.000928 1/K
10000 kPa	0.000798 1/K	0.000793 1/K	0.000799 1/K	0.000821 1/K	0.000837 1/K	0.00085 1/K	0.000873 1/K	0.000896 1/K
15000 kPa	0.00078 1/K	0.000774 1/K	0.000784 1/K	0.000801 1/K	0.000815 1/K	0.000827 1/K	0.000845 1/K	0.000865 1/K
20000 kPa	0.000755 1/K	0.000761 1/K	0.000764 1/K	0.000783 1/K	0.000793 1/K	0.000805 1/K	0.000822 1/K	0.000843 1/K
25000 kPa	0.000742 1/K	0.000746 1/K	0.000749 1/K	0.000762 1/K	0.000775 1/K	0.000787 1/K	0.000801 1/K	0.000821 1/K
30000 kPa	0.00073 1/K	0.000732 1/K	0.000736 1/K	0.000746 1/K	0.000758 1/K	0.000767 1/K	0.000783 1/K	0.0008 1/K
35000 kPa	0.000717 1/K	0.000715 1/K	0.000724 1/K	0.00073 1/K	0.000742 1/K	0.000751 1/K	0.000766 1/K	0.00078 1/K
40000 kPa	0.000704 1/K	0.000707 1/K	0.000714 1/K	0.000716 1/K	0.000727 1/K	0.000735 1/K	0.000746 1/K	0.000762 1/K
45000 kPa	0.00069 1/K	0.000692 1/K	0.000698 1/K	0.000702 1/K	0.000711 1/K	0.000719 1/K	0.000731 1/K	0.000745 1/K
50000 kPa	0.000683 1/K	0.000681 1/K	0.000687 1/K	0.000692 1/K	0.000698 1/K	0.000705 1/K	0.000717 1/K	0.000731 1/K
55000 kPa	0.000673 1/K	0.000671 1/K	0.000676 1/K	0.000678 1/K	0.000688 1/K	0.000692 1/K	0.000705 1/K	0.000717 1/K

CCCCCCO [hexan-1-ol]
isobaric coefficient of expansion
Settings	278.15 K	288.15 K	298.15 K	308.15 K	318.15 K	328.15 K	338.15 K	348.15 K
5000 kPa	0.000821 1/K	0.000837 1/K	0.00085 1/K	0.000875 1/K	0.000898 1/K	0.000929 1/K	0.000958 1/K	0.000995 1/K
10000 kPa	0.0008 1/K	0.000819 1/K	0.000832 1/K	0.000853 1/K	0.000877 1/K	0.0009 1/K	0.000929 1/K	0.00096 1/K
15000 kPa	0.000788 1/K	0.000802 1/K	0.000812 1/K	0.000834 1/K	0.000854 1/K	0.000876 1/K	0.000903 1/K	0.000929 1/K
20000 kPa	0.000778 1/K	0.000786 1/K	0.000796 1/K	0.000815 1/K	0.000833 1/K	0.000854 1/K	0.00088 1/K	0.000903 1/K
25000 kPa	0.00076 1/K	0.000772 1/K	0.00078 1/K	0.000796 1/K	0.000812 1/K	0.000833 1/K	0.000854 1/K	0.000875 1/K
30000 kPa	0.000748 1/K	0.000756 1/K	0.000764 1/K	0.000779 1/K	0.000794 1/K	0.000813 1/K	0.000832 1/K	0.000852 1/K
35000 kPa	0.000733 1/K	0.000743 1/K	0.000749 1/K	0.000763 1/K	0.000778 1/K	0.000794 1/K	0.000813 1/K	0.000831 1/K
40000 kPa	0.000723 1/K	0.000731 1/K	0.000734 1/K	0.000747 1/K	0.000758 1/K	0.000776 1/K	0.000791 1/K	0.000808 1/K
45000 kPa	0.000716 1/K	0.00072 1/K	0.000724 1/K	0.000733 1/K	0.000745 1/K	0.000759 1/K	0.000776 1/K	0.000791 1/K
50000 kPa	0.000708 1/K	0.000703 1/K	0.000712 1/K	0.000721 1/K	0.000729 1/K	0.000745 1/K	0.000758 1/K	0.000772 1/K
55000 kPa	0.000699 1/K	0.000696 1/K	0.0007 1/K	0.000709 1/K	0.000719 1/K	0.000731 1/K	0.000744 1/K	0.000754 1/K

CCCCCO [pentan-1-ol]
isobaric coefficient of expansion
Settings	278.15 K	288.15 K	298.15 K	308.15 K	318.15 K	328.15 K	338.15 K	348.15 K
5000 kPa	0.000863 1/K	0.000873 1/K	0.000889 1/K	0.000908 1/K	0.000934 1/K	0.00096 1/K	0.001 1/K	0.00105 1/K
10000 kPa	0.000833 1/K	0.00085 1/K	0.000864 1/K	0.000883 1/K	0.000904 1/K	0.00093 1/K	0.000961 1/K	0.001 1/K
15000 kPa	0.000826 1/K	0.000831 1/K	0.000847 1/K	0.00086 1/K	0.000879 1/K	0.000899 1/K	0.000927 1/K	0.00096 1/K
20000 kPa	0.000805 1/K	0.000813 1/K	0.000825 1/K	0.000838 1/K	0.000853 1/K	0.000873 1/K	0.000899 1/K	0.000927 1/K
25000 kPa	0.000788 1/K	0.000795 1/K	0.000805 1/K	0.000816 1/K	0.00083 1/K	0.000849 1/K	0.000874 1/K	0.000899 1/K
30000 kPa	0.000778 1/K	0.000779 1/K	0.000788 1/K	0.000796 1/K	0.000814 1/K	0.000827 1/K	0.000847 1/K	0.000871 1/K
35000 kPa	0.000752 1/K	0.000761 1/K	0.000772 1/K	0.00078 1/K	0.000794 1/K	0.000809 1/K	0.000828 1/K	0.000849 1/K
40000 kPa	0.000742 1/K	0.000747 1/K	0.000757 1/K	0.000763 1/K	0.000776 1/K	0.00079 1/K	0.000806 1/K	0.000826 1/K
45000 kPa	0.000735 1/K	0.000735 1/K	0.000741 1/K	0.000748 1/K	0.000759 1/K	0.000772 1/K	0.000786 1/K	0.000807 1/K
50000 kPa	0.000719 1/K	0.000724 1/K	0.000729 1/K	0.000734 1/K	0.000745 1/K	0.000755 1/K	0.000773 1/K	0.000787 1/K
55000 kPa	0.000714 1/K	0.000713 1/K	0.000717 1/K	0.000721 1/K	0.000731 1/K	0.00074 1/K	0.000755 1/K	0.000768 1/K
